Data from ChEMBL document CHEMBL1201862, “PubChem BioAssay data set” (2004).
Values joined by “and” are separate entries in the source; they are usually repeats but may differ in a detail not shown here. Equal values may be shown once.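 These data come from cells grown in 96-well plates and exposed to compound for 48 hours at five concentrations. Here, GI50 denotes the concentration required for 50% inhibition of growth.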 Active and inactive are the calls of the source. No stated cut-off is given here; in the data, active = GI50 up to about 1.1 µM and inactive = higher.

Columns and labels:
Assay in all cases: NCI-60 cell line screen, 48 h
[1] = test system: 786-0
[2] = test system: A498
[3] = test system: CCRF-CEM
[4] = test system: DU-145
[5] = test system: HOP-62
[6] = test system: HT-29
[7] = test system: MDA-MB-231
[8] = test system: MDA-N
[9] = test system: MOLT-4
[10] = test system: Malme-3M
[11] = test system: NCI-H226
[12] = test system: OVCAR-3
[13] = test system: OVCAR-5
[14] = test system: PC-3
[15] = test system: SF-539
[16] = test system: SK-MEL-28
[17] = test system: SK-MEL-5
[18] = test system: U-251
[19] = test system: UACC-62

SMILES | GI50 [1] | GI50 [2] | GI50 [3] | GI50 [4] | GI50 [5] | GI50 [6] | GI50 [7] | GI50 [8] | GI50 [9] | GI50 [10] | GI50 [11] | GI50 [12] | GI50 [13] | GI50 [14] | GI50 [15] | GI50 [16] | GI50 [17] | GI50 [18] | GI50 [19]
CN(C)C(c1ccccc1)C1COC2Cc3ccccc3C1O2 (stereo not given) | > 100 µM (inactive) | > 100 µM (inactive) | 79.3 µM (inactive) | > 100 µM (inactive) | > 100 µM (inactive) | 47.5 µM (inactive) and 46.6 µM (inactive) | > 100 µM (inactive) | > 100 µM (inactive) | > 100 µM (inactive) and 54 µM (inactive) | > 100 µM (inactive) and 60.7 µM (inactive) | 72.9 µM (inactive) | 47.1 µM (inactive) and 64 µM (inactive) | > 100 µM (inactive) | 99.3 µM (inactive) and 76.4 µM (inactive) | > 100 µM (inactive) | > 100 µM (inactive) | > 100 µM (inactive) | > 100 µM (inactive) | > 100 µM (inactive)
Cc1ccc(-c2cc(-c3ccc(Cl)cc3)nc(/N=C3\C(=O)N(CN4CCOCC4)c4ccc(Cl)cc43)n2)cc1 | 22 µM (inactive) | 20.5 µM (inactive) | 20.4 µM (inactive) | 20.5 µM (inactive) | 20.3 µM (inactive) | 16.3 µM (inactive) | 30 µM (inactive) | 32.6 µM (inactive) | 1.1 µM (active) | > 100 µM (inactive) | 54.1 µM (inactive) | 33.3 µM (inactive) | 26.4 µM (inactive) | 30 µM (inactive) | 23 µM (inactive) | 42.4 µM (inactive) | 18.1 µM (inactive) | 17.7 µM (inactive) | 19.8 µM (inactive)
COC(=O)C1=C(C)NC(C)=C(C(=O)OC)C1c1cccc(NO)c1 | 15 µM (inactive) | > 100 µM (inactive) | 3.79 µM (inactive) | 22 µM (inactive) | 32.3 µM (inactive) | 16 µM (inactive) | 16.6 µM (inactive) | 15.1 µM (inactive) |  | 16.4 µM (inactive) | 15.2 µM (inactive) | 16 µM (inactive) | 16.4 µM (inactive) | 15 µM (inactive) | 17.4 µM (inactive) | 15.1 µM (inactive) | 15.5 µM (inactive) | 16.1 µM (inactive) | 17.5 µM (inactive)
COc1ccc(-n2c(C)nc3ccc(NC4OCC(O)C(O)C4O)cc3c2=O)cc1 (stereo not given) | 34 µM (inactive) and 30.5 µM (inactive) | > 100 µM (inactive) |  | > 100 µM (inactive) | > 100 µM (inactive) | 24 µM (inactive) and 25.6 µM (inactive) | > 100 µM (inactive) | 61.9 µM (inactive) and 62.4 µM (inactive) | 22.3 µM (inactive) and 31.5 µM (inactive) | 57.7 µM (inactive) and 99.3 µM (inactive) | 37.3 µM (inactive) and 37.6 µM (inactive) | > 100 µM (inactive) | > 100 µM (inactive) | > 100 µM (inactive) |  | 21.8 µM (inactive) and 32.1 µM (inactive) | > 100 µM (inactive) | 60 µM (inactive) and 49.2 µM (inactive) | 39.4 µM (inactive) and 31.9 µM (inactive)
COc1ccc(/C=N/n2c(C)n[nH]c2=O)c(OC)c1 | > 100 µM (inactive) | 57.9 µM (inactive) | > 100 µM (inactive) | 71.6 µM (inactive) | > 100 µM (inactive) | > 100 µM (inactive) | > 100 µM (inactive) | > 100 µM (inactive) | 85.1 µM (inactive) | > 100 µM (inactive) | > 100 µM (inactive) | > 100 µM (inactive) | > 100 µM (inactive) | > 100 µM (inactive) | > 100 µM (inactive) | > 100 µM (inactive) |  | > 100 µM (inactive) | 35.2 µM (inactive)
C/C(CC/C(C)=N/O)=N\O | > 100 µM (inactive) | > 100 µM (inactive) |  | > 100 µM (inactive) | > 100 µM (inactive) | > 100 µM (inactive) | > 100 µM (inactive) | > 100 µM (inactive) | > 100 µM (inactive) | > 100 µM (inactive) | > 100 µM (inactive) | > 100 µM (inactive) | > 100 µM (inactive) | > 100 µM (inactive) | > 100 µM (inactive) | > 100 µM (inactive) | > 100 µM (inactive) | > 100 µM (inactive) | > 100 µM (inactive)
C/C(NC(=O)c1ccccc1)=C(/C(=O)c1ccccc1)[C@@H]1OC(C)(C)O[C@@H]1[C@H]1COC(C)(C)O1 | 18.3 µM (inactive) | 86.1 µM (inactive) |  | 44.7 µM (inactive) | 33.1 µM (inactive) | 27 µM (inactive) | 23.7 µM (inactive) | 18.6 µM (inactive) | 15.5 µM (inactive) | 37.6 µM (inactive) | 33 µM (inactive) | 32.9 µM (inactive) | 34.4 µM (inactive) | 30.4 µM (inactive) | 54 µM (inactive) | 52.4 µM (inactive) | 16.3 µM (inactive) | 30.9 µM (inactive) | 39.4 µM (inactive)
O=c1cc(N2CCOCC2)[nH]c(=O)n1-c1cccc(Cl)c1 | > 100 µM (inactive) | 32.4 µM (inactive) | > 100 µM (inactive) | > 100 µM (inactive) | > 100 µM (inactive) | > 100 µM (inactive) | > 100 µM (inactive) | > 100 µM (inactive) | > 100 µM (inactive) | > 100 µM (inactive) | > 100 µM (inactive) | > 100 µM (inactive) | > 100 µM (inactive) | > 100 µM (inactive) | > 100 µM (inactive) | > 100 µM (inactive) |  | > 100 µM (inactive) | > 100 µM (inactive)
CN1CCN(c2cc3[nH]c(-c4ccc(Cl)cc4)nc3cc2F)CC1 | 20.1 µM (inactive) | 18.2 µM (inactive) | 13.4 µM (inactive) | 22.1 µM (inactive) | 16.8 µM (inactive) |  | 17.4 µM (inactive) | 12.8 µM (inactive) | 10.9 µM (inactive) | 10.5 µM (inactive) | 6.81 µM (inactive) | 11.8 µM (inactive) | 15.2 µM (inactive) | 16.8 µM (inactive) |  | 8.75 µM (inactive) | 10.6 µM (inactive) | 21.4 µM (inactive) | 4.32 µM (inactive)
CNc1nc(C(N)=O)c(N)s1 | > 100 µM (inactive) | > 100 µM (inactive) | > 100 µM (inactive) | > 100 µM (inactive) | > 100 µM (inactive) | > 100 µM (inactive) | > 100 µM (inactive) | > 100 µM (inactive) | > 100 µM (inactive) | > 100 µM (inactive) | > 100 µM (inactive) | > 100 µM (inactive) | > 100 µM (inactive) | > 100 µM (inactive) | > 100 µM (inactive) | > 100 µM (inactive) | 84.9 µM (inactive) | > 100 µM (inactive) | > 100 µM (inactive)
CC1CC(=O)Nc2cc(Cl)ccc2N1C(=O)C1CC1 (stereo not given) | > 100 µM (inactive) | > 100 µM (inactive) | > 100 µM (inactive) | > 100 µM (inactive) | > 100 µM (inactive) | > 100 µM (inactive) | > 100 µM (inactive) | > 100 µM (inactive) | > 100 µM (inactive) | > 100 µM (inactive) | > 100 µM (inactive) | > 100 µM (inactive) | > 100 µM (inactive) | > 100 µM (inactive) | > 100 µM (inactive) | > 100 µM (inactive) | > 100 µM (inactive) | > 100 µM (inactive) | 
COc1cc2ccc1OCc1cccc(n1)COc1ccc(cc1OC)/C=N\c1ccc(cc1)/N=C\2 | > 100 µM (inactive) | > 100 µM (inactive) | > 100 µM (inactive) | > 100 µM (inactive) | > 100 µM (inactive) | > 100 µM (inactive) | > 100 µM (inactive) | > 100 µM (inactive) | > 100 µM (inactive) | > 100 µM (inactive) | > 100 µM (inactive) | > 100 µM (inactive) | > 100 µM (inactive) | > 100 µM (inactive) | > 100 µM (inactive) |  | > 100 µM (inactive) | > 100 µM (inactive) | > 100 µM (inactive)
O=CCOCc1cc2c(cc1Br)OCO2 | 17.3 µM (inactive) | > 100 µM (inactive) | 9.93 µM (inactive) | 28.2 µM (inactive) | > 100 µM (inactive) | 19 µM (inactive) | 19.7 µM (inactive) | 37.2 µM (inactive) | 30.1 µM (inactive) |  |  | 17.3 µM (inactive) | > 100 µM (inactive) | 21.4 µM (inactive) | 25.2 µM (inactive) | 37.9 µM (inactive) | 19.3 µM (inactive) | 31 µM (inactive) | 43.4 µM (inactive)
C/C=C(\C)C(=O)OC1C(C)=C2C(C1OC(=O)CCCC)C(C)(OC(C)=O)CC(OC(=O)CCCC)C1(O)C2OC(=O)C1(C)O (stereo not given) | 0.982 µM (active) | 6.47 µM (inactive) | 1.74 µM (inactive) | 3.71 µM (inactive) | 0.431 µM (active) | 0.736 µM (active) | 0.625 µM (active) | 0.437 µM (active) | 1.46 µM (inactive) |  | 1.19 µM (inactive) | 0.925 µM (active) | 2.21 µM (inactive) | 0.491 µM (active) | 0.944 µM (active) | 0.893 µM (active) | 1.73 µM (inactive) | 0.605 µM (active) | 1.57 µM (inactive)
CN(C)CCO/N=C1/C=C2CC[C@H]3[C@@H]4CC[C@H](O)[C@@]4(C)CC[C@@H]3[C@@]2(C)CC1 | 8.85 µM (inactive) | 15.7 µM (inactive) | 6.89 µM (inactive) | 16.7 µM (inactive) | 12.1 µM (inactive) | 1.05 µM (active) | 12.9 µM (inactive) | 3.72 µM (inactive) | 8.55 µM (inactive) |  | 1.23 µM (inactive) | 16.6 µM (inactive) | 12.5 µM (inactive) | 18.2 µM (inactive) | 3.51 µM (inactive) | 13.8 µM (inactive) | 8.71 µM (inactive) | 10.1 µM (inactive) | 10.9 µM (inactive)
